Measurements published in patent US20060275365A1, “Immediate-release and high-drug-load pharmaceutical formulations of micronised (4-chlorophenyl) [4-(4-pyridylmethyl)phthalazin-1-yl] and salts thereof” (priority 2005, published 2006).

Columns and labels:
[1] = Particle size volume distribution by laser diffraction (Sympatec Helos); type: physicochemical; settings: spherical particles presumed
Text: When used herein, the term “micronised” is intended to mean that the particle size distribution is so that at least 90% of the particles have a particle diameter of less than 30 μm (calculated from the volume distribution curve under the presumption of spherical particles), i.e. a d90 value of at the most 30 μm. It is well-known to the skilled person that parameters used to describe a given particle size distribution may vary considerably dependent on the specific equipment and settings used. Therefore, it is important to note that whenever the terms “particle size distribution”, “particle diameter”, “d50”, “d90”, “d95”, “d99”, etc. are used herein it should be understood that the specific values or ranges used in connection therewith are always meant to be determined from the volume distribution curve under the presumption of spherical particles using laser diffraction and the conditions set forth in the section entitled “Determination of particle size distribution” herein.
Determination of the particle size volume distribution of pynasunate was performed by laser diffraction using the following equipment and settings: […]

[2] = system: VEGFR kinases; settings: not dependent on a specific ligand; cited from earlier work

In the case of `Clc1ccc(Nc2nnc(Cc3ccncc3)c3ccccc23)cc1` [pynasunate, (4-chlorophenyl)[4-(4-pyridylmethyl)-phthalazin-1-yl]ammonium hydrogen succinate], the “d50 particle size diameter” value [1] is reported as 6 μm and the “d90 particle size diameter” value [1] is reported as 15 μm.
For `Clc1ccc(Nc2nnc(Cc3ccncc3)c3ccccc23)cc1` [(4-chlorophenyl)[4-(4-pyridylmethyl)-phthalazin-1-yl]], the “inhibition of VEGFR kinases” value [2] is given as “inhibitor of all three VEGFR kinases”.
